Test results as given in PMC6892276 (European Journal of Pharmaceutical Sciences, 2019).
One block for each molecule: values may come before it.

What was measured:
[1] = Metabolite profiling in mouse hepatocytes and MLM; type: in vitro ADME; conditions: for maximal metabolite abundance, % of T0 parent (LC-MS/MS response): mouse hepatocytes and MLM; for % total metabolite response: MLM 1 mg/ml, 1 μM; for % T0 parent response, minor metabolites: mouse, matrix not stated
Description: (§1) Suspended hepatocyte incubations for the purposes of metabolite identification and CLint determination were conducted as described by [Wood et al. (2018)] in round-bottomed 350 μl 96-well polypropylene plates on a PHMP thermoshaker (Grant Instruments (Cambridge) Ltd. (Shepreth, UK)) at 37 °C and 900 rpm. […] Individual wells were quenched with 120 μl of methanol containing internal standard over a time course (Table 1) and an aliquot removed for analysis.
(§2) Prior to initiation of the reaction by the addition of NADPH (final concentration 1 mM), an aliquot was removed from each incubation and quenched in ice cold methanol containing internal standard (referred to as T0). NADPH was subsequently added to this solution for matrix matching. The remaining reaction (with addition of NADPH) was allowed to proceed for 60 min. At 0.5, 5, 15, 30 and 60 min aliquots were sampled and quenched as above. Incubations were conducted in singlicate; control incubations (substituting PBS for NADPH) were conducted simultaneously.
(§3) For the purpose of metabolite identification, samples were analysed using a Dionex Ultimate 3000 UHPLC system coupled to a ThermoScientific Q Exactive Plus orbitrap mass spectrometer (Thermo Fisher Scientific Inc., Waltham, USA). Separation of analytes was achieved using an Acquity UPLC HSS T3 column (1.8 μm, 100 × 2.1 mm) (Waters, Elstree, UK) at a temperature of 50 °C and a binary mobile phase gradient at a flow rate of 0.4 ml/min. Initial conditions comprised 10% solvent A (0.1% formic acid in water), 90% solvent B (methanol); this was ramped to 95% A at 12 min, immediately returned to initial conditions and held for the remaining 3 min of the method. The UV absorbance of samples at 230 nm and 260 nm was monitored using a Dionex Ultimate 3000 diode array detector. Sample analysis was by electrospray atmospheric pressure ionization combined with full scan acquisition in positive ion mode over a mass range 80–1200 m/z. The capillary voltage was 3.5 kV; desolvation gas and capillary temperatures were 450 °C and 275 °C respectively; sheath, aux and sweep gas flow rates were 55, 15 and 3 respectively. Full MS/dd-MS^2 (full MS scan followed by data dependent MS/MS) and Full MS/AIF (full MS scan followed by all ion fragmentation) workflows were used in combination.
(§4) Identification of metabolites and elucidation of their proposed structures was undertaken with the aid of the software Compound Discoverer (v2.0.0.303, Thermo Fisher Scientific Inc., Waltham, USA). RAW data files containing accurate mass data and fragmentation spectra generated in the acquisition software Chromeleon (v7.2 SR3 (7553), Thermo Fisher Scientific Inc., Waltham, USA) were input into Compound Discoverer and processed using the targeted workflow described in Fig. 1 of the Appendix. The final time point of a parallel incubation of a different compound was used as a sample blank and any chromatographic peaks identified with the same m/z and retention time as in this sample were marked as background compounds and therefore not considered as potential metabolites. The Compound Discoverer application combines accurate mass data, isotope pattern matching and predicted biotransformations based on the parent compound's structure to generate a series of expected and unexpected compounds or metabolites. These were manually filtered using a typical criteria of peak area greater than or equal to 5000 counts per sec; compound identified in samples of at least three time points and peak area ratio of compound in Tx relative to T0 greater than or equal to 2, where Tx represents any given time point. […] The fragmentation spectra of these analytes were compared to those of the parent to facilitate structural interpretation of biotransformations. […]

[2] = Metabolite profiling in human hepatocytes and HLM; type: in vitro ADME; conditions: for metabolite abundance, % of T0 parent (LC-MS response): HLM only
Description: as §1, §2, §3, §4

[3] = Metabolite profiling in rat hepatocytes and RLM; type: in vitro ADME
Description: as §1, §2
(§5) For the purpose of metabolite identification, samples were analysed using a Dionex Ultimate 3000 UHPLC system coupled to a ThermoScientific Q Exactive Plus orbitrap mass spectrometer (Thermo Fisher Scientific Inc., Waltham, USA). […] The UV absorbance of samples at 230 nm and 260 nm was monitored using a Dionex Ultimate 3000 diode array detector. […]

[4] = Metabolite profiling in dog hepatocytes and DLM; type: in vitro ADME; conditions: dog hepatocytes and microsomes of both sexes
Description: as §1, §2, §5

FLT3-ITD = target: T1, FLT3-ITD (Homo sapiens, UniProt P36888, ITD); assay: KINOMEscan Kd determination against FLT3-ITD; type: binding; conditions: 11-point 3-fold dilution series, top concentration 5 μM
T1 sequence (P36888 564-993): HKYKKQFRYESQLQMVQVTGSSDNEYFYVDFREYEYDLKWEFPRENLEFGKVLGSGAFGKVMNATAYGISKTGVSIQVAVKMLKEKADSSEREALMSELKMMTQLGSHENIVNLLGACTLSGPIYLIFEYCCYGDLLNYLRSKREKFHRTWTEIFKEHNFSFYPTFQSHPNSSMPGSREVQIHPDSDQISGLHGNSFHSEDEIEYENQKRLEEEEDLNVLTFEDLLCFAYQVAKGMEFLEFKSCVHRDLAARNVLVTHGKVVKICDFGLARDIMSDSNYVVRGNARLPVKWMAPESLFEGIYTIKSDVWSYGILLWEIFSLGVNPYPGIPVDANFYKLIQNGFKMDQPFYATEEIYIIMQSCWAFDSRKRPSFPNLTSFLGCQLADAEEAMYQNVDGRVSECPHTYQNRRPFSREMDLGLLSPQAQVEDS
Description: (§6) Kds were determined using an 11-point 3-fold compound dilution series (top concentration 5 μM) with three DMSO control points.

FLT3 = target: T2, FLT3 (Homo sapiens, UniProt P36888); assay: KINOMEscan Kd determination against FLT3; type: binding; conditions: 11-point 3-fold dilution series, top concentration 5 μM
T2 sequence (P36888 27-993): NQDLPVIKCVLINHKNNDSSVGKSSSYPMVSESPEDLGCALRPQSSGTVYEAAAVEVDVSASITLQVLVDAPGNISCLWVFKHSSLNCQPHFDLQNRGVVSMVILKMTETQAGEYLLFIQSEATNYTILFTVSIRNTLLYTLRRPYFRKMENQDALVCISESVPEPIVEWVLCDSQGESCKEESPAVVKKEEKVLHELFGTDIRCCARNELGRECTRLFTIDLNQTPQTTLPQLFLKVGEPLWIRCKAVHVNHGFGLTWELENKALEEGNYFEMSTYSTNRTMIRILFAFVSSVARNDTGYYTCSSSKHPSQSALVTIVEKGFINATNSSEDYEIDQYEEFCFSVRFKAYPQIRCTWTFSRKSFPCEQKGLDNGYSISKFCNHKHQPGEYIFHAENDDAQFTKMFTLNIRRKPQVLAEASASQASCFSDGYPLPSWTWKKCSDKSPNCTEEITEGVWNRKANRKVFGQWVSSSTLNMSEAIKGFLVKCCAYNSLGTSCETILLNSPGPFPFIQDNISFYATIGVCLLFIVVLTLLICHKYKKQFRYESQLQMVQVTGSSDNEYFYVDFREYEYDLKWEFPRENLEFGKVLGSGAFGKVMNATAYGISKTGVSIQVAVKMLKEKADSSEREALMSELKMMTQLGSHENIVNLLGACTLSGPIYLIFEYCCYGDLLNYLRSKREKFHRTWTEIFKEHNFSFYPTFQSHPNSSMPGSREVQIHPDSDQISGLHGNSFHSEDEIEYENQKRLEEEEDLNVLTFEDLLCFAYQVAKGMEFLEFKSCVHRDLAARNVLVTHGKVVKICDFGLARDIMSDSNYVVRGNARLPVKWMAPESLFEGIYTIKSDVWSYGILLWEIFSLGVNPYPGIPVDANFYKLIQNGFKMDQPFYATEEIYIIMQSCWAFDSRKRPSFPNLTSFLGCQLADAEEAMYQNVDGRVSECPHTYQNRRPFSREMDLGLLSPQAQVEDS
Description: as §6

Aurora-B = Aurora-B (Homo sapiens, UniProt Q96GD4); assay: KINOMEscan Kd determination against Aurora-B; type: binding; conditions: 11-point 3-fold dilution series, top concentration 5 μM
Chain of Aurora-B (Q96GD4 whole entry): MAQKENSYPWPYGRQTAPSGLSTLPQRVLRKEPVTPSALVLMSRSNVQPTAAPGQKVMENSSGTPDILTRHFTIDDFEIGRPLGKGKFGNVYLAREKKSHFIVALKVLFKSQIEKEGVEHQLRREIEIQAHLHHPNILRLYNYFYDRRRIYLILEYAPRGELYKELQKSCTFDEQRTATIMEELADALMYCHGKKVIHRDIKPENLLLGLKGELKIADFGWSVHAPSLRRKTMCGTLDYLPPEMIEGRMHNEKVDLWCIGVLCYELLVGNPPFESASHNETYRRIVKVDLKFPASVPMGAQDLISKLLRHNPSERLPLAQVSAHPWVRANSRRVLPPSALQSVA
Description: as §6

Aurora-A = target: T3, Aurora-A (Homo sapiens, UniProt O14965); assay: KINOMEscan Kd determination against Aurora-A; type: binding; conditions: 11-point 3-fold dilution series, top concentration 5 μM
T3 sequence (O14965 1-403): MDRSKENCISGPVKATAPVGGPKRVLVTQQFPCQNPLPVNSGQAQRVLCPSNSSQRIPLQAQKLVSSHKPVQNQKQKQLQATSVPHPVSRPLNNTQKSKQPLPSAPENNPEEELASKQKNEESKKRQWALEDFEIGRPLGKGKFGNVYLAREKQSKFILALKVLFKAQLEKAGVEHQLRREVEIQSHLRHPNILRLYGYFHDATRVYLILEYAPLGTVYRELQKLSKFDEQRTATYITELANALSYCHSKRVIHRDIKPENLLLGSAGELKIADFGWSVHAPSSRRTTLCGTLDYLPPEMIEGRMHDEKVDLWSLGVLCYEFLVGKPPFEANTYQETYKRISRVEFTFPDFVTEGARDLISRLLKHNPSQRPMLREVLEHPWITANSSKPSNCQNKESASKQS
Description: as §6

maximal metabolite abundance, % of T0 parent (LC-MS/MS response) [1]: > 10%
metabolite abundance, % of T0 parent (LC-MS response) [2]: < 2%
SMILES: Cc1nn(C)cc1-c1nc2c(NCCN)c(Cl)cnc2[nH]1 [Compound M7]

SMILES: Cc1nn(C)cc1-c1nc2c(N3CC[N+]([O-])(Cc4ccc(Cl)cc4)CC3)c(Cl)cnc2[nH]1 [Compound M2]
% total metabolite response ([1]; within the first 30 min of incubation): > 25%
maximal metabolite abundance, % of T0 parent (LC-MS/MS response) [1]: > 10%
% total metabolite response ([2]; HLM 1 mg/ml, 1 μM, 60 min incubation): 3.5%

SMILES: Cc1nn(C)cc1-c1nc2c(NCCNCc3ccc(Cl)cc3)c(Cl)cnc2[nH]1 [Compound M4]
metabolite abundance, % of parent ([3]; RLM, at most): < 2%
maximal metabolite abundance, % of T0 parent (LC-MS/MS response) ([3]; rat hepatocytes): 8–10%
metabolite abundance, % of parent LC-MS response at T0 ([2]; human hepatocytes and HLM): < 2%

SMILES: Cc1n[nH]cc1-c1nc2c(N3CCNCC3)c(Cl)cnc2[nH]1 [Compound M6]
% T0 parent response, minor metabolites [1]: < 2%
metabolite abundance, % of T0 parent (LC-MS response) [2]: < 2%

SMILES: Cc1n[nH]cc1-c1nc2c(N3CCN(Cc4ccc(Cl)cc4)CC3)c(Cl)cnc2[nH]1 [Compound M3]
maximal metabolite abundance, % of T0 parent (LC-MS/MS response) [4]: > 10%
% T0 parent response, minor metabolites [1]: < 2%
metabolite abundance, % of parent LC-MS response at T0 ([2]; human hepatocytes and HLM): < 2%

SMILES: Cc1nn(C)cc1-c1nc2c(N3CCNCC3)c(Cl)cnc2[nH]1 [Compound M1]
Kd (FLT3-ITD): 82 nM
Kd (FLT3): 7.9 nM
Kd (Aurora-B): 130 nM
% total metabolite response ([1]; peak of initial increase): up to 7%
metabolite abundance, % of parent LC-MS response at T0 ([2]; HLM, final sampled time point): 10.6%
metabolite abundance, % of parent LC-MS response at T0 ([2]; human hepatocytes and HLM): approximately 10%
metabolite abundance, % of parent LC-MS response at T0 ([2]; human hepatocytes, final sampled time point): 9.4%
Kd (Aurora-A): 33 nM
